Experimental data from article PMC11277489, “Novel Piperazine Derivatives of Vindoline as Anticancer Agents” (International Journal of Molecular Sciences, 2024).
Like-named read-outs stand apart in the source and are kept apart here.

Assays:
Type in all cases: cell-based
K-562 = test: NCI60 five-dose screen, Leukemia; settings: Homo sapiens, K562; K-562, Leukemia; five-dose screen; read-out: GI50
MOLT-4 = test: NCI60 five-dose screen, Leukemia; settings: Homo sapiens; MOLT-4, Leukemia; five-dose screen; read-out: GI50
RPMI-8226 = test: NCI60 five-dose screen, Leukemia; settings: Homo sapiens; RPMI-8226, Leukemia; five-dose screen; read-out: GI50
SR = test: NCI60 five-dose screen, Leukemia; settings: Homo sapiens, Leukemia, five-dose screen, read-out: GI50
A549/ATCC = test: NCI60 five-dose screen, Non-small Cell Lung Cancer; settings: Homo sapiens; A549/ATCC, Non-small Cell Lung Cancer; five-dose screen; read-out: GI50
EKVX = test: NCI60 five-dose screen, Non-small Cell Lung Cancer; settings: Homo sapiens, Non-small Cell Lung Cancer, five-dose screen, read-out: GI50
HOP-62 = test: NCI60 five-dose screen, Non-small Cell Lung Cancer; settings: Homo sapiens; HOP-62, Non-small Cell Lung Cancer; five-dose screen; read-out: GI50
NCI-H322M = test: NCI60 five-dose screen, Non-small Cell Lung Cancer; settings: Homo sapiens, Non-small Cell Lung Cancer, five-dose screen, read-out: GI50
HCT-116 = test: NCI60 five-dose screen, Colon Cancer; settings: Homo sapiens; HCT-116, Colon Cancer; five-dose screen; read-out: GI50
HCT-15 = test: NCI60 five-dose screen, Colon Cancer; settings: Homo sapiens; HCT-15, Colon Cancer; five-dose screen; read-out: GI50
HT29 = test: NCI60 five-dose screen, Colon Cancer; settings: Homo sapiens, HT-29; HT29, Colon Cancer; five-dose screen; read-out: GI50
SF-268 = test: NCI60 five-dose screen, CNS Cancer; settings: Homo sapiens; SF-268, CNS Cancer; five-dose screen; read-out: GI50
SF-295 = test: NCI60 five-dose screen, CNS Cancer; settings: Homo sapiens; SF-295, CNS Cancer; five-dose screen; read-out: GI50
SF-539 = test: NCI60 five-dose screen, CNS Cancer; settings: Homo sapiens; SF-539, CNS Cancer; five-dose screen; read-out: GI50
SNB-19 = test: NCI60 five-dose screen, CNS Cancer; settings: Homo sapiens; SNB-19, CNS Cancer; five-dose screen; read-out: GI50
U251 = test: NCI60 five-dose screen, CNS Cancer; settings: Homo sapiens, U-251; U251, CNS Cancer; five-dose screen; read-out: GI50
LOX IMVI = test: NCI60 five-dose screen, Melanoma; settings: Homo sapiens, Melanoma, five-dose screen, read-out: GI50
M14 = test: NCI60 five-dose screen, Melanoma; settings: Homo sapiens; M14, Melanoma; five-dose screen; read-out: GI50
MDA-MB-435 = test: NCI60 five-dose screen, Melanoma; settings: Homo sapiens; MDA-MB-435, Melanoma; five-dose screen; read-out: GI50
SK-MEL-2 = test: NCI60 five-dose screen, Melanoma; settings: Homo sapiens; SK-MEL-2, Melanoma; five-dose screen; read-out: GI50
SK-MEL-28 = test: NCI60 five-dose screen, Melanoma; settings: Homo sapiens; SK-MEL-28, Melanoma; five-dose screen; read-out: GI50
SK-MEL-5 = test: NCI60 five-dose screen, Melanoma; settings: Homo sapiens; SK-MEL-5, Melanoma; five-dose screen; read-out: GI50
UACC-257 = test: NCI60 five-dose screen, Melanoma; settings: Homo sapiens; UACC-257, Melanoma; five-dose screen; read-out: GI50
UACC-62 = test: NCI60 five-dose screen, Melanoma; settings: Homo sapiens; UACC-62, Melanoma; five-dose screen; read-out: GI50
OVCAR-4 = test: NCI60 five-dose screen, Ovarian Cancer; settings: Homo sapiens; OVCAR-4, Ovarian Cancer; five-dose screen; read-out: GI50
OVCAR-8 = test: NCI60 five-dose screen, Ovarian Cancer; settings: Homo sapiens; OVCAR-8, Ovarian Cancer; five-dose screen; read-out: GI50
RXF 393 = test: NCI60 five-dose screen, Renal Cancer; settings: Homo sapiens, RXF 393, Renal Cancer
UO-31 = test: NCI60 five-dose screen, Renal Cancer; settings: Homo sapiens; UO-31, Renal Cancer; five-dose screen; read-out: GI50
PC-3 = test: NCI60 five-dose screen, Prostate Cancer; settings: Homo sapiens; PC-3, Prostate Cancer; five-dose screen; read-out: GI50
MDA-MB231ATCC = test: NCI60 five-dose screen, Breast Cancer; settings: Homo sapiens, MDA-MB-231; MDA-MB231ATCC, Breast Cancer; five-dose screen; read-out: GI50
HS 578T = test: NCI60 five-dose screen, Breast Cancer; settings: Homo sapiens; HS 578T, Breast Cancer; five-dose screen; read-out: GI50
BT-549 = test: NCI60 five-dose screen, Breast Cancer; settings: Homo sapiens; BT-549, Breast Cancer; five-dose screen; read-out: GI50
MDA-MB-468 = test: NCI60 five-dose screen, Breast Cancer; settings: Homo sapiens; MDA-MB-468, Breast Cancer; five-dose screen; read-out: GI50
[1] = test system: 60 human tumor cell lines (NCI60); test: NCI60 five-dose screen, whole panel and sub-panel means
[2] = Homo sapiens, 60 cell, mean over all 60 cell lines, read-out: GI50 Mean
[3] = Homo sapiens, mean over Breast Cancer panel, read-out: GI50 Mean
[4] = Homo sapiens, mean over CNS Cancer panel, read-out: GI50 Mean
[5] = Homo sapiens, mean over Colon Cancer panel, read-out: GI50 Mean
[6] = Homo sapiens, mean over Leukemia panel, read-out: GI50 Mean
[7] = Homo sapiens, mean over Melanoma panel, read-out: GI50 Mean
[8] = Homo sapiens, mean over Non-small Cell Lung Cancer panel, read-out: GI50 Mean
[9] = Homo sapiens, mean over Ovarian Cancer panel, read-out: GI50 Mean
[10] = Homo sapiens, mean over Prostate Cancer panel, read-out: GI50 Mean
[11] = Homo sapiens, mean over Renal Cancer panel, read-out: GI50 Mean

CC[C@]12C=CCN3CC[C@@]4(c5ccc(OC)cc5N(C)[C@H]4[C@@](O)(C(=O)OC)[C@@H]1OC(=O)CCCN1CCN(Cc4ccc(C(F)(F)F)cc4)CC1)[C@@H]32 [Compound 23]
GI50 (K-562): 1.7 µM
GI50 (MOLT-4): 1.15 µM
GI50 (RPMI-8226): 2 µM
GI50 (SR): 1.66 µM
GI50 (A549/ATCC): 1.78 µM
GI50 (EKVX): 1.7 µM
GI50 (HOP-62): 1.74 µM
GI50 (NCI-H322M): 2.24 µM
GI50 (HCT-116): 1.7 µM
GI50 (HCT-15): 1.74 µM
GI50 (HT29): 1.66 µM
GI50 (SF-268): 1.35 µM
GI50 (SF-295): 1.78 µM
GI50 (SF-539): 1.58 µM
GI50 (SNB-19): 1.58 µM
GI50 (U251): 1.66 µM
GI50 (LOX IMVI): 1.78 µM
GI50 (M14): 1.55 µM
GI50 (MDA-MB-435): 1.48 µM
GI50 (SK-MEL-2): 1.78 µM
GI50 (SK-MEL-28): 1.62 µM
GI50 (SK-MEL-5): 1.35 µM
GI50 (UACC-257): 1.74 µM
GI50 (UACC-62): 1.66 µM
GI50 (OVCAR-4): 2.04 µM
GI50 (OVCAR-8): 1.82 µM
GI50 (RXF 393): 1.35 µM
GI50 (UO-31): 1.58 µM
GI50 (PC-3): 1.58 µM
GI50 (MDA-MB231ATCC): 1.74 µM
GI50 (HS 578T): 1.51 µM
GI50 (BT-549): 1.66 µM
GI50 (MDA-MB-468): 1 µM
GI50 [1, 2]: 1.65 µM
GI50 [1, 3]: 1.53 µM
GI50 [1, 4]: 1.57 µM
GI50 [1, 5]: 1.64 µM
GI50 [1, 6]: 1.71 µM
GI50 [1, 7]: 1.62 µM
GI50 [1, 8]: 1.8 µM
GI50 [1, 9]: 1.77 µM
GI50 [1, 10]: 1.58 µM
GI50 [1, 11]: 1.63 µM
GI50 ([1]; Homo sapiens, on almost all cell lines, five-dose screen, read-out: GI50): < 2 µM

CC[C@]12C=CCN3CC[C@@]4(c5ccc(OC)cc5N(C)[C@H]4[C@@](O)(C(=O)OC)[C@@H]1OC(=O)CCCN1CCN(Cc4ccc(F)cc4)CC1)[C@@H]32 [Compound 24]
GI50 (K-562): 2.4 µM
GI50 (MOLT-4): 1.74 µM
GI50 (RPMI-8226): 4.17 µM
GI50 (SR): 3.47 µM
GI50 (A549/ATCC): 10.2 µM
GI50 (EKVX): 12 µM
GI50 (HOP-62): 10.2 µM
GI50 (NCI-H322M): 8.32 µM
GI50 (HCT-116): 5.62 µM
GI50 (HCT-15): 5.13 µM
GI50 (HT29): 3.8 µM
GI50 (SF-268): 5.25 µM
GI50 (SF-295): 12.6 µM
GI50 (SF-539): 10.5 µM
GI50 (SNB-19): 11.5 µM
GI50 (U251): 7.59 µM
GI50 (LOX IMVI): 5.01 µM
GI50 (M14): 5.5 µM
GI50 (MDA-MB-435): 5.5 µM
GI50 (SK-MEL-2): 15.1 µM
GI50 (SK-MEL-28): 4.68 µM
GI50 (SK-MEL-5): 1.66 µM
GI50 (UACC-257): 2 µM
GI50 (UACC-62): 11.5 µM
GI50 (OVCAR-4): 5.37 µM
GI50 (OVCAR-8): 14.5 µM
GI50 (RXF 393): 1 µM
GI50 (UO-31): 3.09 µM
GI50 (PC-3): 4.17 µM
GI50 (MDA-MB231ATCC): 2.82 µM
GI50 (HS 578T): 4.07 µM
GI50 (BT-549): 7.24 µM
GI50 (MDA-MB-468): 1.74 µM
GI50 [1, 2]: 6.84 µM
GI50 [1, 3]: 4.25 µM
GI50 [1, 4]: 8.08 µM
GI50 [1, 5]: 6.09 µM
GI50 [1, 6]: 3.19 µM
GI50 [1, 7]: 5.92 µM
GI50 [1, 8]: 9.83 µM
GI50 [1, 9]: 10.1 µM
GI50 [1, 10]: 7.32 µM
GI50 [1, 11]: 5.58 µM

CC[C@]12C=CCN3CC[C@@]4(c5ccc(OC)cc5N(C)[C@H]4[C@@](O)(C(=O)OC)[C@@H]1OC(=O)CCC(=O)N1CCN(c4ccc(C(F)(F)F)cc4)CC1)[C@@H]32 [Compound 28]
GI50 (K-562): 1.7 µM
GI50 (MOLT-4): 1.17 µM
GI50 (RPMI-8226): 2.57 µM
GI50 (SR): 2.29 µM
GI50 (A549/ATCC): 2.75 µM
GI50 (EKVX): 3.63 µM
GI50 (HOP-62): 5.5 µM
GI50 (NCI-H322M): 10 µM
GI50 (HCT-116): 3.31 µM
GI50 (HCT-15): 3.16 µM
GI50 (HT29): 2.57 µM
GI50 (SF-268): 4.07 µM
GI50 (SF-295): 3.16 µM
GI50 (SF-539): 5.25 µM
GI50 (SNB-19): 4.37 µM
GI50 (U251): 3.31 µM
GI50 (LOX IMVI): 3.24 µM
GI50 (M14): 2.4 µM
GI50 (MDA-MB-435): 3.89 µM
GI50 (SK-MEL-2): 2.75 µM
GI50 (SK-MEL-28): 5.01 µM
GI50 (SK-MEL-5): 3.24 µM
GI50 (UACC-257): 3.89 µM
GI50 (UACC-62): 2.88 µM
GI50 (OVCAR-4): 4.27 µM
GI50 (OVCAR-8): 3.72 µM
GI50 (RXF 393): 2.29 µM
GI50 (UO-31): 2.29 µM
GI50 (PC-3): 2.45 µM
GI50 (MDA-MB231ATCC): 4.17 µM
GI50 (HS 578T): 4.79 µM
GI50 (BT-549): 3.31 µM
GI50 (MDA-MB-468): 1.86 µM
GI50 [1, 2]: < 4 µM
GI50 [1, 3]: 3.44 µM
GI50 [1, 4]: 3.69 µM
GI50 [1, 5]: 3.16 µM
GI50 [1, 6]: 1.81 µM
GI50 [1, 7]: 3.63 µM
GI50 [1, 8]: 4.23 µM
GI50 [1, 9]: 3.92 µM
GI50 [1, 10]: 3.85 µM
GI50 [1, 11]: 3.67 µM
GI50 ([1]; mean over all 60 cell lines, read-out: GI50 Mean): 3.55 µM
